Reference: patent US20150353495A1 (PORTOLA PHARMACEUTICALS, INC., priority 2010, published 2015)

How the values were obtained:
Type in all cases: biochemical
[1] = target: T1, JAK2 (Homo sapiens, UniProt O60674); experiment: Z'-LYTE kinase assay JAK2
T1 construct: 5 μl of catalytic domain recombinant Kinase enzyme+Tyr peptide substrate (Invitrogen, CA); purchased Invitrogen
Procedure, shortened: (§1)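 In duplicate wells, each test molecule (1% final DMSO) is incubated with recombinant kinase catalytic domain, Tyr6 peptide substrate and ATP for one hour at room temperature; a site-specific protease is then added for another hour before fluorescence reading.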

[2] = target: T2, TYK2 (Homo sapiens, UniProt P29597); experiment: Z'-LYTE kinase assay TYK2
T2 construct: 5 μl of catalytic domain recombinant Kinase enzyme+Tyr peptide substrate (Invitrogen, CA); purchased Invitrogen
T2 sequence (P29597 897-1176 limits assumed): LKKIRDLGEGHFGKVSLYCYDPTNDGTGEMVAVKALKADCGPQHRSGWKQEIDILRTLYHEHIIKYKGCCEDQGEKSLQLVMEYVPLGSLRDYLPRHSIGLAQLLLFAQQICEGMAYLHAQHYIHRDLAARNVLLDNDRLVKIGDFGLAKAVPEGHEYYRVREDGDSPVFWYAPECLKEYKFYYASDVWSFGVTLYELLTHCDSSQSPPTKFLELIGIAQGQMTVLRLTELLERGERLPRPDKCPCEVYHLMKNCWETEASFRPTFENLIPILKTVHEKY
Experimental: JAK and TYK2 tyrosine phosphorylation activity is measured using the Z′-LYTE™ Technology developed by Invitrogen Corporation (Carlsbad, Calif.). For JAK1, JAK2 and JAK3 the Z′-LYTE™ Kinase Assay Kit-Tyr6 Peptide (part number PV4122) was used. For TYK2 the Z′-LYTE™ Kinase Assay Kit-Tyr6 Peptide (part number PV3192) was used. The Z′-LYTE™ biochemical assay employs a fluorescence resonance energy transfer (FRET) coupled-enzyme format and is based on the differential sensitivity of phosphorylated and non-phosphorylated peptides to proteolitic cleavage. The assay uses a synthetic peptide substrate that is labelled with a donor fluorophore (coumarin) and an acceptor fluorophore (fluorescein) that make up a FRET pair. In the primary reaction (the Kinase Reaction), the kinase transfers the γ-phosphate of ATP to a single tyrosine residue on the substrate, while the presence of a kinase inhibitor in the primary reaction suppresses phosphorylation. In the secondary reaction (the Development Reaction), a site-specific protease (the Development Reagent) is added. The development buffer quenches the Kinase Reaction, while the protease recognizes and cleaves non-phosphorylated Z′-LYTE™ peptide substrate. Cleavage disrupts FRET between the donor and acceptor fluorophores on the non-phosphoryleted substrate, while uncleaved, phosphorylated substrate maintains FRET.
To test the ability of candidate molecules to inhibit JAK tyrosine phosphorylation activity, molecules are reconstituted in 100% DMSO and serially diluted 1:10 in polypropylene v-bottom microtiter plates. The candidate molecules are then diluted 1:25 into kinase buffer and 2.5 μl transferred into duplicate wells of a 384 well low volume black microtiter assay plate (Corning, USA). The final DMSO concentration in the assay is 1%. The kinase reaction contains 2.5 μl of a candidate molecule, 5 μl of catalytic domain recombinant Kinase enzyme+Tyr peptide substrate (Invitrogen, CA) and 2.5 μl ATP (Invitrogen, CA). The kinase reaction is allowed to procede for 1 hour at room temperature. The protease reaction is initiated by the addition of 5 μl Development Reagent (Invitrogen, CA). After 1 hour incubation at room temperature the fluorescence is measured using a FlexStation plate reader (Molecular Devices, Sunnyvale, Calif.). The reader settings used are as follows: Fluorescence mode, endpoint, top read, excitation 400 nm, emission 445 nm and 520 nm, Auto Cutoff 435 nm and 515 nm, PMT sensitivity high, 6 reads per well Inhibition of JAK kinase activity is calculated as the percent phosphorylation of substrate in the presence of inhibitor compared to the percent phosphorylation of substrate in the absence of inhibitor. IC50's were derived using Xlfit 4.3 (IDBS, UK), 4 parameter logistic model 205: Y=(A+4B-A)/(1+((C/x)AD)))).

[3] = target: T3, JAK1 (Homo sapiens, UniProt P23458); experiment: Z'-LYTE kinase assay JAK1
T3 construct: 5 μl of catalytic domain recombinant Kinase enzyme+Tyr peptide substrate (Invitrogen, CA); purchased Invitrogen
Procedure, shortened: as §1

[4] = target: T4, JAK3 (Homo sapiens, UniProt P52333); experiment: Z'-LYTE kinase assay JAK3
T4 construct: 5 μl of catalytic domain recombinant Kinase enzyme+Tyr peptide substrate (Invitrogen, CA); purchased Invitrogen
Procedure, shortened: as §1

T4 sequence (P52333 822-1111 limits assumed): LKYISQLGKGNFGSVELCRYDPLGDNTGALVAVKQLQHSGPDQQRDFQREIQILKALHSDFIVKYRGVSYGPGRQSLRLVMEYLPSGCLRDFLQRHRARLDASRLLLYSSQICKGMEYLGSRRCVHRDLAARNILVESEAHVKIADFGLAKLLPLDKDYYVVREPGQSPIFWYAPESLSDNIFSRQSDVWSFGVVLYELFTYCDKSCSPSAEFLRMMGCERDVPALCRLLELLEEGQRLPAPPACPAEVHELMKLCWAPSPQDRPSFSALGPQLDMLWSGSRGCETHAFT
T3 sequence (P23458 875-1153 limits assumed): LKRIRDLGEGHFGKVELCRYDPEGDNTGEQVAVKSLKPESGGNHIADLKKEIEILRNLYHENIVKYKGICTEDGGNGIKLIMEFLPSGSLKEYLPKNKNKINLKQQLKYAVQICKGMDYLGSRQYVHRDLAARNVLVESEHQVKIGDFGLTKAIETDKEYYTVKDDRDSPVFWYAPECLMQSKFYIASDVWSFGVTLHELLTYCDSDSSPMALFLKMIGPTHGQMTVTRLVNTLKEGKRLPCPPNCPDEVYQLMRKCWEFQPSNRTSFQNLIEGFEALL
T1 sequence (O60674 849-1124 limits assumed): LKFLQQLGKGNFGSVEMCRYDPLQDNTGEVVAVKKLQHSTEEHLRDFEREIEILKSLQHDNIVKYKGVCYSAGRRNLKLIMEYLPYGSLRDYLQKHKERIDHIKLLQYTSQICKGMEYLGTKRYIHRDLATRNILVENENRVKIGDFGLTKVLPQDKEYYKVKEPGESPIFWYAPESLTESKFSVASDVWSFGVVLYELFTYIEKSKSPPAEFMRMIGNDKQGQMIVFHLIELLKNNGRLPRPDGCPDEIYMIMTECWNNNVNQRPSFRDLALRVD

Row | IC50 [1] | IC50 [2] | IC50 [3] | IC50 [4] | Compound
1 | > 1000 nM | > 1000 nM | > 1000 nM | 10 to 100 nM | CN(C)C(=O)COc1cccc(Nc2cc(NC3(c4ccccc4)CC3)c(C(N)=O)cn2)c1 [Example 365, 6-(3-(2-(dimethylamino)-2-oxoethoxy)phenylamino)-4-(1-phenylcyclopropylamino)nicotinamide]
2 | 100 to 1000 nM | > 1000 nM | > 1000 nM | 1 to 10 nM | CC(=O)N1CCN(c2ccc(Nc3cc(NC4(c5ccccc5)CC4)c(C(N)=O)cn3)cc2)CC1 [Example 126, 6-(4-(4-acetylpiperazin-1-yl)phenylamino)-4-(1-phenylcyclopropylamino)nicotinamide]
3 | 100 to 1000 nM | > 1000 nM | > 1000 nM | 10 to 100 nM | NC(=O)c1cnc(Nc2cccc(N3CCNCC3)c2)cc1NC1(c2ccccc2)CC1 [Example 367, 4-(1-phenylcyclopropylamino)-6-(3-(piperazin-1-yl)phenylamino)nicotinamide]
4 | 100 to 1000 nM | 100 to 1000 nM | 100 to 1000 nM | 1 to 10 nM | Cc1cc(Nc2cc(NCc3ccccc3)c(C(N)=O)cn2)ccc1C(=O)NCCO [Example 449, 4-(benzylamino)-6-(4-(2-hydroxyethylcarbamoyl)-3-methylphenylamino)nicotinamide]
5 | 10 to 100 nM | 100 to 1000 nM | 100 to 1000 nM | 1 to 10 nM | CC(=O)N1CCN(c2ccc(Nc3cc(NC4(c5ccccc5F)CC4)c(C(N)=O)cn3)cc2)CC1 [Example 130, 6-(4-(4-acetylpiperazin-1-yl)phenylamino)-4-(1-(2-fluorophenyl)cyclopropylamino)nicotinamide]
6 | 100 to 1000 nM | > 1000 nM | > 1000 nM | 10 to 100 nM | CN(C)C(=O)COc1ccc(Nc2cc(NC3(c4ccccc4)CC3)c(C(N)=O)cn2)cc1 [Example 366, 6-(4-(2-(dimethylamino)-2-oxoethoxy)phenylamino)-4-(1-phenylcyclopropylamino)nicotinamide]
7 | 100 to 1000 nM | 100 to 1000 nM | 100 to 1000 nM | 1 to 10 nM | N#CCCc1ccc(Nc2cc(NCc3ccccc3)c(C(N)=O)cn2)cc1 [Example 386]
8 | 100 to 1000 nM | > 1000 nM | 100 to 1000 nM | 1 to 10 nM | N#CCOc1ccc(Nc2cc(NCc3ccccc3)c(C(N)=O)cn2)cc1 [Example 384]
9 | 100 to 1000 nM | 100 to 1000 nM | > 1000 nM | 1 to 10 nM | COc1cc(Nc2cc(NCc3ccccc3)c(C(N)=O)cn2)ccc1C(=O)N(C)C [Example 436, 4-(benzylamino)-6-(4-(dimethylcarbamoyl)-3-methoxyphenylamino)nicotinamide]
10 | 100 to 1000 nM | 100 to 1000 nM | > 1000 nM | 100 to 1000 nM | CC(=O)N1CCN(c2ccc(Nc3cc(NCC4CC4)c(C(N)=O)cn3)cc2)CC1 [Example 238, 6-(4-(4-acetylpiperazin-1-yl)phenylamino)-4-(cyclopropylmethylamino)nicotinamide]
11 | 100 to 1000 nM | 100 to 1000 nM | > 1000 nM | 1 to 10 nM | CN(C)C(=O)c1ccc(Nc2cc(NCc3ccccc3)c(C(N)=O)cn2)cc1Cl [Example 437, 4-(benzylamino)-6-(3-chloro-4-(dimethylcarbamoyl)phenylamino)nicotinamide]
12 | 100 to 1000 nM | 100 to 1000 nM | > 1000 nM | 100 to 1000 nM | CC(=O)N1CCN(c2ccc(Nc3cc(NC4Cc5ccccc5C4)c(C(N)=O)cn3)cc2)CC1 [Example 253, 6-(4-(4-acetylpiperazin-1-yl)phenylamino)-4-(2,3-dihydro-1H-inden-2-ylamino)nicotinamide]

The next lines start with the molecule.

Row | Compound | IC50 [1] | IC50 [2] | IC50 [3] | IC50 [4]
13 | COCCN(C)C(=O)c1ccc(Nc2cc(NCc3ccccc3)c(C(N)=O)cn2)cc1C [Example 453, 4-(benzylamino)-6-(4-((2-methoxyethyl)(methyl)carbamoyl)-3-methylphenylamino)nicotinamide] | 10 to 100 nM | 100 to 1000 nM | 100 to 1000 nM | 1 to 10 nM
14 | CC(=O)N1CCN(c2ccc(Nc3cc(NC(C)C)c(C(N)=O)cn3)cc2)CC1 [Example 234, 6-(4-(4-acetylpiperazin-1-yl)phenylamino)-4-(isopropylamino)nicotinamide] | > 1000 nM | 100 to 1000 nM | > 1000 nM | 100 to 1000 nM
15 | CC(C)(C)OC(=O)N1CCC(c2ccc(Nc3cc(NCc4cccc(F)c4)c(C(N)=O)cn3)cc2)CC1 [Example 77, tert-butyl 4-(4-(5-carbamoyl-4-(3-fluorobenzylamino)pyridin-2-ylamino)phenyl)piperidine-1-carboxylate] | > 1000 nM | > 1000 nM | > 1000 nM | 100 to 1000 nM
16 | NC(=O)c1cc(F)c(Nc2cccc(-n3nccn3)c2)nc1N [Example 24, 6-(3-(2H-1,2,3-triazol-2-yl)phenylamino)-2-amino-5-fluoronicotinamide] | > 1000 nM | > 1000 nM | > 1000 nM | > 1000 nM
17 | CC(=O)N1CCC[C@H](CNc2cc(Nc3ccc(C(=O)N(C)C)c(C)c3)ncc2C(N)=O)C1 [Example 443] | 100 to 1000 nM | 100 to 1000 nM | > 1000 nM | 1 to 10 nM
18 | CCC(=O)N1CCC(c2ccc(Nc3cc(NCc4cccnc4)c(C(N)=O)cn3)cc2)CC1 [Example 187, 6-(4-(1-propionylpiperidin-4-yl)phenylamino)-4-(pyridin-3-ylmethylamino)nicotinamide] | 100 to 1000 nM | 100 to 1000 nM | 100 to 1000 nM | 10 to 100 nM
19 | NC(=O)c1cnc(Nc2ccc(C3CCOCC3)cc2)cc1NCc1cccc(F)c1 [Example 143, 4-(3-fluorobenzylamino)-6-(4-(tetrahydro-2H-pyran-4-yl)phenylamino)nicotinamide] | > 1000 nM | > 1000 nM | > 1000 nM | 10 to 100 nM
20 | NC(=O)c1cc(F)c(Nc2ccc(OCCN3CCCC3)cc2)nc1NCc1ccccc1 [Example 26, 2-(benzylamino)-5-fluoro-6-(4-(2-(pyrrolidin-1-yl)ethoxy)phenylamino)nicotinamide] | > 1000 nM | > 1000 nM | > 1000 nM | > 1000 nM
21 | NC(=O)c1cnc(Nc2ccc(N3CCOCC3)cc2)c(Cl)c1NCc1cccc(F)c1 [Example 377, 5-chloro-4-(3-fluorobenzylamino)-6-(4-morpholinophenylamino)nicotinamide] | > 1000 nM | > 1000 nM | > 1000 nM | 100 to 1000 nM
22 | CCC(=O)N1CCC(c2ccc(Nc3cc(NCc4cc(F)cc(F)c4)c(C(N)=O)cn3)cc2)CC1 [Example 195, 4-(3,5-difluorobenzylamino)-6-(4-(1-propionylpiperidin-4-yl)phenylamino)nicotinamide] | 10 to 100 nM | > 1000 nM | > 1000 nM | 1 to 10 nM
23 | CN(C)C(=O)c1ccc(Nc2cc(NCc3c(F)cccc3F)c(C(N)=O)cn2)cc1 [Example 102, 4-(2,6-difluorobenzylamino)-6-(4-(dimethylcarbamoyl)phenylamino)nicotinamide] | 10 to 100 nM | 10 to 100 nM | 100 to 1000 nM | 1 to 10 nM
24 | CC(=O)N1CCC[C@H](CNc2cc(Nc3ccc(C(=O)N4CCCC4)cc3)ncc2C(N)=O)C1 [Example 265, (R)-4-((1-acetylpiperidin-3-yl)methylamino)-6-(4-(pyrrolidine-1-carbonyl)phenylamino)nicotinamide] | 100 to 1000 nM | 100 to 1000 nM | > 1000 nM | 10 to 100 nM
